Assays:
Experiment in all cases: relative viability (nuclei count vs DMSO), 5 days (fraction); higher = more cells survive
BMX-IN-1 + OSI-027 = compound: C=CC(=O)Nc1cc(-n2c(=O)ccc3cnc4ccc(-c5ccc(NS(C)(=O)=O)cc5)cc4c32)ccc1C [BMX-IN-1] + COc1cccc2cc(-c3nc([C@H]4CC[C@H](C(=O)O)CC4)n4ncnc(N)c34)[nH]c12 [OSI-027] (partner 0.5 µM)
Outline: (§1)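 Relative viability was taken as the ratio of nuclei in treated wells to nuclei in vehicle wells. Lung cancer cell lines in 1536-well plates received compounds by pin tool one day after seeding, either one drug alone or a fixed anchor-drug dose plus five library-drug doses (not always all listed) in √10 steps. Nuclei were counted on 4× images after 5 days of treatment, and values are medians of duplicate plates.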

BMX-IN-1 + Luminespib = compound: C=CC(=O)Nc1cc(-n2c(=O)ccc3cnc4ccc(-c5ccc(NS(C)(=O)=O)cc5)cc4c32)ccc1C [BMX-IN-1] + CCNC(=O)c1noc(-c2cc(C(C)C)c(O)cc2O)c1-c1ccc(CN2CCOCC2)cc1 [Luminespib] (partner 0.01 µM)
Outline: as §1

Ibrutinib + Pemetrexed = compound: C=CC(=O)N1CCC[C@@H](n2nc(-c3ccc(Oc4ccccc4)cc3)c3c(N)ncnc32)C1 [Ibrutinib] + Nc1nc2[nH]cc(CCc3ccc(C(=O)N[C@@H](CCC(=O)O)C(=O)O)cc3)c2c(=O)[nH]1 [Pemetrexed] (partner 0.2 µM)
Outline: as §1

BMX-IN-1 + AZD7762 = compound: C=CC(=O)Nc1cc(-n2c(=O)ccc3cnc4ccc(-c5ccc(NS(C)(=O)=O)cc5)cc4c32)ccc1C [BMX-IN-1] + NC(=O)Nc1cc(-c2cccc(F)c2)sc1C(=O)N[C@H]1CCCNC1 [AZD7762] (partner 0.2 µM)
Outline: as §1

| Cell Line | relative viability (BMX-IN-1 + OSI-027; first compound 0.02 µM) | relative viability (BMX-IN-1 + OSI-027; first compound 0.2 µM) | relative viability (BMX-IN-1 + OSI-027; first compound 0.6325 µM) | relative viability (BMX-IN-1 + OSI-027; first compound 2 µM) | relative viability (BMX-IN-1 + Luminespib; first compound 0.02 µM) | relative viability (BMX-IN-1 + Luminespib; first compound 0.2 µM) | relative viability (BMX-IN-1 + Luminespib; first compound 0.6325 µM) | relative viability (BMX-IN-1 + Luminespib; first compound 2 µM) | relative viability (Ibrutinib + Pemetrexed; first compound 0.005 µM) | relative viability (Ibrutinib + Pemetrexed; first compound 0.01581 µM) | relative viability (Ibrutinib + Pemetrexed; first compound 0.05 µM) | relative viability (Ibrutinib + Pemetrexed; first compound 0.1581 µM) | relative viability (Ibrutinib + Pemetrexed; first compound 0.5 µM) | relative viability (BMX-IN-1 + AZD7762; first compound 0.02 µM) | relative viability (BMX-IN-1 + AZD7762; first compound 0.2 µM) | relative viability (BMX-IN-1 + AZD7762; first compound 0.6325 µM) | relative viability (BMX-IN-1 + AZD7762; first compound 2 µM) |
| --- | --- | --- | --- | --- | --- | --- | --- | --- | --- | --- | --- | --- | --- | --- | --- | --- | --- |
| NCI-H1734 | 0.709 | 0.64 | 0.632 | 0.621 | 0.199 | 0.213 | 0.202 | 0.147 | 0.423 | 0.415 | 0.461 | 0.387 | 0.489 | 0.683 | 0.623 | 0.542 | 0.669 |
| NCI-H1755 | 0.685 | 0.787 | 0.765 | 0.721 | 0.525 | 0.387 | 0.502 | 0.597 | 0.42 | 0.481 | 0.475 | 0.456 | 0.516 | 0.543 | 0.491 | 0.453 | 0.466 |
| NCI-H1792 |  | 0.823 | 0.817 | 0.775 | 0.428 | 0.31 | 0.427 | 0.46 |  | 0.67 | 0.96 | 0.818 | 0.596 | 0.896 | 0.79 | 0.866 | 0.885 |
| NCI-H1793 | 0.271 | 0.281 | 0.324 | 0.332 | 0.172 | 0.167 | 0.167 | 0.204 | 0.526 | 0.877 | 0.664 | 0.515 | 0.501 | 0.513 | 0.661 | 0.594 | 0.588 |
| NCI-H1915 | 0.647 | 0.714 | 0.805 | 0.619 | 0.912 | 1.14 | 0.785 | 0.751 | 0.532 | 0.599 | 0.587 | 0.513 | 0.715 | 0.774 | 0.786 | 0.806 | 0.675 |
| NCI-H1944 | 0.417 | 0.405 | 0.502 | 0.452 | 0.812 | 0.729 | 0.728 | 0.706 | 0.624 | 0.514 | 0.643 | 0.518 | 0.629 | 0.479 | 0.661 | 0.52 | 0.578 |
| NCI-H1975 | 0.873 | 0.741 | 1.04 | 0.696 | 0.253 | 0.21 | 0.481 | 0.159 | 0.292 | 0.28 | 0.315 | 0.277 | 0.309 | 0.797 | 0.742 | 0.895 | 0.673 |
| NCI-H1993 | 0.546 | 0.6 | 0.489 | 0.476 | 0.854 | 0.805 | 0.829 | 0.737 | 0.444 | 0.58 | 0.609 | 0.567 | 0.597 | 0.907 | 0.926 | 0.706 | 0.724 |
| NCI-H2085 | 0.743 | 0.748 | 0.696 | 0.745 | 0.404 | 0.389 | 0.401 | 0.406 | 0.878 | 0.828 | 0.759 | 0.621 | 0.671 | 1.08 | 1.07 | 0.986 | 0.996 |
| NCI-H2087 | 0.624 | 0.712 | 0.589 | 0.485 | 0.192 | 0.179 | 0.188 | 0.133 | 0.639 | 0.626 | 0.748 |  | 0.694 | 1.67 | 1.44 | 1.3 | 1.42 |
| NCI-H2126 | 0.696 | 0.703 | 0.872 | 0.664 | 1 | 0.974 | 1.17 | 0.909 | 0.509 | 0.653 | 0.717 | 0.671 | 0.69 | 1.03 | 1.06 | 1.16 | 1.04 |
| NCI-H2170 | 0.735 | 0.803 | 0.79 | 0.769 | 0.921 | 0.77 | 0.821 | 0.819 | 0.248 | 0.266 | 0.264 | 0.259 | 0.21 | 0.945 | 0.98 | 1.03 | 0.928 |
| NCI-H2342 | 0.687 | 0.649 | 0.608 | 0.585 | 0.774 | 0.765 | 0.707 | 0.703 | 0.455 | 0.806 | 0.618 | 0.723 | 0.715 | 0.454 | 0.484 | 0.492 | 0.447 |
| NCI-H2347 | 0.39 | 0.356 | 0.525 | 0.38 | 0.438 | 0.356 | 0.517 | 0.353 | 0.454 | 0.4 | 0.434 | 0.462 | 0.463 | 0.787 | 0.833 | 0.712 | 0.945 |
| NCI-H2405 | 0.647 | 0.63 | 0.605 | 0.634 | 0.747 | 0.754 | 0.669 | 0.674 | 1.01 | 0.97 |  |  | 1.06 | 0.831 | 0.941 | 0.762 | 0.805 |
| NCI-H3122 | 1.23 | 1.1 | 1.3 | 1.1 | 0.114 | 0.0826 | 0.103 | 0.0683 | 0.214 | 0.203 | 0.219 | 0.191 | 0.301 | 1.22 | 1.16 | 1.11 | 1.07 |
| PC-3 [JPC-3] | 0.783 | 0.887 | 0.84 | 0.793 | 0.82 | 0.757 | 0.709 | 0.68 | 1.14 | 0.995 | 0.72 | 0.624 | 0.365 | 0.886 | 0.925 | 0.918 | 0.847 |
| PC-14 | 1.46 | 1.19 | 0.994 | 0.0726 | 0.184 | 0.107 | 0.14 | 0.152 | 0.157 | 0.138 | 0.133 | 0.121 | 0.201 | 0.404 | 0.459 | 0.408 | 0.312 |
| RERF-LC-KJ | 0.626 | 0.612 | 0.587 | 0.278 | 1.3 | 1.55 | 1.27 | 1.49 | 0.462 | 0.455 | 0.512 | 0.433 | 0.569 | 1.1 | 0.957 | 1.3 | 1.19 |
